Data: patent publication US20040266795A1 (priority 2003, published 2004)
Like-named read-outs stand apart in the source and are kept apart here.

Columns and labels:
[1] = cited from earlier work
[2] = Stability studies of the prepared FMC (storage, HPLC); type: physicochemical
Procedure: The purity of famciclovir was analyzed by HPLC under the following conditions: […]

[3] = below 85% relative humidity; cited from earlier work
[4] = 1 month, 25° C., 75% relative humidity
[5] = 1 month, 40° C., 75% relative humidity
[6] = 1 month, 55° C., 75% relative humidity
[7] = 2 month, 25° C., 75% relative humidity
[8] = 2 month, 40° C., 75% relative humidity
[9] = 2 month, 55° C., 75% relative humidity
[10] = 3 months, 25° C., 75% relative humidity
[11] = 3 months, 40° C., 75% relative humidity
[12] = 3 months, 55° C., 75% relative humidity
[13] = 5 months, 25° C., 75% relative humidity
[14] = 6 months, 25° C., 75% relative humidity
[15] = 6 months, 40° C., 75% relative humidity
[16] = 6 months, 55° C., 75% relative humidity

## 2-[2-(2-amino-9H-purin-9-yl)ethyl]-1,3-propane diacetate [famciclovir]
[1]; octanol/phosphate buffer (pH 7.4)
  partition coefficient P: 2.08
[1]; octanol/water (pH 4.8)
  partition coefficient P: 1.09
[2]; [4]
  Any, %: 0.00%
  Total, %: 0.00%
[2]; [5]
  Any, %: 0.00%
  Total, %: 0.00%
[2]; [6]
  Any, %: 0.00%
  Total, %: 0.00%
[2]; [7]
  Any, %: 0.00%
  Total, %: 0.00%
[2]; [8]
  Any, %: 0.06%
  Appear.: White
  MH-FMC RRT 0.51 (%): 0.06%
  RRT 0.80 (%): <0.01%
  RRT 0.87 (%): <0.01%
  RRT 0.89 (%): 0.01%
  RRT 1.10 (%): <0.01%
  RRT 1.27 (%): <0.01%
  RRT 1.35 (%): <0.01%
  RRT 1.74 (%): <0.01%
  Total, %: 0.07%
[2]; [9]
  Any, %: 0.07%
  Appear.: White
  MH-FMC RRT 0.51 (%): 0.07%
  RRT 0.80 (%): <0.01%
  RRT 0.87 (%): <0.01%
  RRT 0.89 (%): 0.01%
  RRT 1.10 (%): <0.01%
  RRT 1.27 (%): <0.01%
  RRT 1.35 (%): <0.01%
  RRT 1.74 (%): <0.01%
  Total, %: 0.08%
[2]; [10]
  Any, %: 0.00%
  Total, %: 0.00%
[2]; [11]
  Any, %: 0.06%
  Appear.: White
  MH-FMC RRT 0.51 (%): 0.06%
  RRT 0.80 (%): <0.01%
  RRT 0.87 (%): <0.01%
  RRT 0.89 (%): 0.01%
  RRT 1.10 (%): <0.01%
  RRT 1.27 (%): <0.01%
  RRT 1.35 (%): <0.01%
  RRT 1.74 (%): <0.01%
  Total, %: 0.07%
[2]; [12]
  Any, %: 0.06%
  Appear.: White
  MH-FMC RRT 0.51 (%): 0.06%
  RRT 0.80 (%): <0.01%
  RRT 0.87 (%): <0.01%
  RRT 0.89 (%): 0.01%
  RRT 1.10 (%): <0.01%
  RRT 1.27 (%): <0.01%
  RRT 1.35 (%): <0.01%
  RRT 1.74 (%): <0.01%
  Total, %: 0.07%
[2]; [13]
  Any, %: 0.06%
  Appear.: White
  MH-FMC RRT 0.51 (%): 0.06%
  RRT 0.80 (%): 0.01%
  RRT 0.87 (%): 0.02%
  RRT 0.89 (%): 0.01%
  RRT 1.10 (%): 0.01%
  RRT 1.27 (%): 0.01%
  RRT 1.35 (%): 0.01%
  RRT 1.74 (%): 0.01%
  Total, %: 0.14%
[2]; [14]
  Any, %: 0.06%
  MH-FMC RRT 0.51 (%): 0.06%
  RRT 0.80 (%): 0.01%
  RRT 0.87 (%): 0.01%
  RRT 1.27 (%): 0.01%
  Total, %: 0.09%
[2]; [15]
  Any, %: 0.06%
  MH-FMC RRT 0.51 (%): 0.06%
  RRT 0.80 (%): 0.01%
  RRT 0.87 (%): 0.01%
  RRT 1.27 (%): 0.01%
  Total, %: 0.09%
[2]; [16]
  Any, %: 0.06%
  MH-FMC RRT 0.51 (%): 0.06%
  RRT 0.80 (%): 0.01%
  RRT 0.87 (%): 0.01%
  RRT 1.27 (%): 0.01%
  Total, %: 0.09%
[2]; at least 6 months at 25° C., 40° C. or 55° C. and 75% relative humidity
  monohydroxy impurity content upon storage: does not increase
[2]; start
  Any, %: 0.00%
  Total, %: 0.00%
[3]
  hygroscopicity: not hydroscopic
